How the values were obtained:
[1] = test system: ALOMY; assay: Pre-emergence action against ALOMY, 1280 g/ha; assay type: in vivo, Alopecurus myosuroides; conditions: visual scoring after about 3 weeks vs untreated controls, 100% = plants have died, 0% = like control plants
Summary of the method: (§1)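 Greenhouse pre-emergence test on sown seeds in sandy loam; soil-surface spray of formulated compound with 0.5% additive at 600 L/ha water. Scored visually, % vs untreated, after about 3 weeks.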

[2] = test system: LOLRI; assay: Pre-emergence action against LOLRI, 1280 g/ha; assay type: in vivo, Lolium rigidum; conditions: visual scoring after about 3 weeks vs untreated controls, 100% = plants have died, 0% = like control plants
Summary of the method: as §1

[3] = test system: ECHGC; assay: Pre-emergence action at 320 g/ha against ECHGC; assay type: in vivo, Echinochloa crus-galli; conditions: visual scoring after about 3 weeks vs untreated controls
Summary of the method: (§2)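 Sow seeds, cover with soil, spray soil surface (WP/EC, 0.5% additive, 600 l/ha water), hold in greenhouse ~3 wk, then rate % activity visually against untreated controls.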

[4] = test system: VERPE; assay: Pre-emergence action at 320 g/ha against VERPE; assay type: in vivo, Veronica persica; conditions: visual scoring after about 3 weeks vs untreated controls
Summary of the method: as §2

[5] = test system: VIOTR; assay: Pre-emergence action at 320 g/ha against VIOTR; assay type: in vivo, Viola tricolor; conditions: dosage 320 g/ha
Summary of the method: as §2

[6] = test system: ECHCG; assay: Post-emergence action at 320 g/ha against ECHCG; assay type: in vivo, Echinochloa crus-galli; conditions: dosage 320 g/ha, visual rating about 3 weeks after treatment vs untreated controls (100% = plants died)
Summary of the method: (§3)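 Visual % activity vs untreated controls (0% = like control, 100% = plants dead), scored ~3 wk after treatment. Plants were grown in sandy loam in a greenhouse and sprayed on green parts at the one-leaf stage (2–3 wk post-sowing). Spray: WP or EC in water, 0.5% additive, 600 l/ha.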

[7] = test system: ABUTH; assay: Post-emergence action at 320 g/ha against ABUTH; assay type: in vivo, Abutilon theophrasti; conditions: visual rating about 3 weeks after treatment vs untreated controls
Text: Accordingly, the compounds of the invention have good herbicidal action against a broad spectrum of weed grasses and broad-leaved weeds and are therefore suitable for controlling unwanted vegetation by the post-emergence method. • b) Seeds of monocotyledonous and dicotyledonous weeds and crop plants are placed in sandy loam in plastic or organic planting pots, covered with soil and cultivated in a greenhouse under controlled growth conditions. 2 to 3 weeks after sowing, the test plants are treated at the one-leaf stage. The compounds of the invention, formulated in the form of wettable powders (WP) or as emulsion concentrates (EC), are then sprayed onto the green parts of the plants as aqueous suspension or emulsion with addition of 0.5% additive at a water application rate of 600 l/ha (converted). After the test plants have been kept in the greenhouse under optimum growth conditions for about 3 weeks, the activity of the preparations is rated visually in comparison to untreated controls. For example, 100% activity=the plants have died, 0% activity=like control plants. Tables 39 to 49 below show the effects of selected compounds of the general formula (I) according to Tables 1 and 2 on various harmful plants and at an application rate corresponding to 320 g/ha, which were obtained by the experimental procedure mentioned above.

[8] = test system: AVEFA; assay: Post-emergence action at 320 g/ha against AVEFA; assay type: in vivo; conditions: visual rating about 3 weeks after treatment vs untreated controls
Summary of the method: as §3

[9] = test system: PHBPU; assay: Pre-emergence action at 320 g/ha against PHBPU; assay type: in vivo; conditions: visual scoring after about 3 weeks vs untreated controls
Summary of the method: as §2

[10] = test system: DIGSA; assay: Post-emergence action against DIGSA, 1.28 kg/ha; assay type: in vivo, Digitaria sanguinalis; conditions: dosage 1280 g/ha, visual rating about 3 weeks after treatment vs untreated controls
Summary of the method: (§4)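 Herbicidal action is estimated by eye after about three weeks under optimum greenhouse conditions, on a 0–100% scale against untreated plants. Compounds are applied post-emergence to one-leaf-stage weeds as aqueous WP or EC preparations containing 0.5% additive, sprayed at 600 L/ha.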

[11] = test system: VIOTR; assay: Post-emergence action at 320 g/ha against VIOTR; assay type: in vivo, Viola tricolor; conditions: visual rating about 3 weeks after treatment vs untreated controls
Summary of the method: as §3

[12] = test system: KCHSC; assay: Pre-emergence action against KCHSC, 1280 g/ha; assay type: in vivo, Bassia scoparia; conditions: scored visually after about 3 weeks vs untreated controls (100% = plants have died)
Summary of the method: as §1

[13] = test system: ABUTH; assay: Pre-emergence action against ABUTH, 1280 g/ha; assay type: in vivo, Abutilon theophrasti; conditions: scored visually after about 3 weeks vs untreated controls (100% = plants have died)
Summary of the method: as §1

[14] = test system: KCHSC; assay: Post-emergence action against KCHSC, 1.28 kg/ha; assay type: in vivo, Bassia scoparia; conditions: dosage 1280 g/ha, visual rating about 3 weeks after treatment vs untreated controls (100% = plants died)
Summary of the method: as §4

[15] = test system: ABUTH; assay: Pre-emergence action at 320 g/ha against ABUTH; assay type: in vivo, Abutilon theophrasti; conditions: greenhouse, scored visually after about 3 weeks vs untreated controls, 100% = plants have died, 0% = like control plants
Summary of the method: as §2

SMILES | Pre-emergence action against ALOMY [1] | pest or weed control at 1280 g/ha ([2]; Lolium rigidum, 504 h) | Pre-emergence action against ECHGC in % [3] | pest or weed control at 320 g/ha ([4]; Veronica persica, 504 h) | pest or weed control at 320 g/ha ([5]; Viola tricolor, 504 h) | Post-emergence action at 320 g/ha against ECHCG in % [6] | Post-emergence action against ABUTH in % [7] | pest or weed control at 320 g/ha ([8]; Avena fatua, 504 h) | Pre-emergence action against LOLRI [2] | Pre-emergence action against PHBPU in % [9] | Pre-emergence action against VERPE in % [4] | Pre-emergence action against VIOTR in % [5] | Post-emergence action against DIGSA [10] | Post-emergence action against VIOTR in % [11] | Post-emergence action against AVEFA in % [8] | Pre-emergence action against KCHSC [12] | Pre-emergence action against ABUTH [13] | Post-emergence action against KCHSC [14] | Pre-emergence action at 320 g/ha against ABUTH in % [15]
C=CCNC(=O)COc1nn(-c2ccccc2F)c(-c2ccc(F)nc2)c1Br [Example X-001, N-Allyl-2-{[4-bromo-1-(2-fluorophenyl)-5-(6-fluoropyridin-3-yl)-1H-pyrazol-3-yl]oxy}acetamide] | 90% | 100% | 100% | 80% | 100% | 80% | 80% | 90% | – | – | – | – | – | – | – | – | – | – | –
COC(=O)CNC(=O)COc1nn(-c2ccccc2F)c(-c2ccc(F)nc2)c1Br [Example X-002] | 100% | – | 100% | – | – | 100% | 90% | – | 100% | 80% | 100% | 100% | 100% | 90% | 100% | – | – | – | –
CS(=O)(=O)NC(=O)COc1nn(-c2ccccc2F)c(-c2ccc(F)nc2)c1Br [Example X-004] | 90% | – | 90% | – | – | 90% | 80% | – | 100% | – | 100% | 100% | 100% | 80% | 90% | – | – | – | –
CN(C)S(=O)(=O)NC(=O)COc1nn(-c2ccccc2F)c(-c2ccc(F)nc2)c1Br [Example X-005] | 100% | – | 90% | – | – | 80% | – | – | 100% | 90% | 100% | 100% | – | 80% | 90% | 90% | – | – | –
CCOC(=O)COc1nn(-c2ccccc2F)c(-c2ccc(F)nc2)c1C(F)(F)F [VII-010] | 100% | – | 100% | – | – | 90% | 80% | – | 100% | 90% | 100% | 100% | 100% | 80% | 100% | – | 100% | – | –
COC(=O)COc1nn(-c2ccccc2)c(-c2ccc(F)nc2)c1Br [VII-018] | 100% | – | 90% | – | – | – | 80% | – | 100% | – | 100% | 90% | 100% | 90% | 80% | 90% | 90% | 90% | –
O=C(O)COc1nn(-c2ccccc2F)c(-c2cncc(F)c2)c1Br [VII-025] | 100% | – | 100% | – | – | 90% | 90% | – | 100% | 90% | 100% | 100% | 100% | 90% | 90% | 90% | 90% | – | –
COC(=O)C(C)Oc1nn(-c2ccccc2)c(-c2ccc(F)nc2)c1Br (centres unmarked) [VII-026] | 100% | – | – | – | – | – | 80% | – | 90% | – | 80% | 100% | 100% | 90% | 80% | 100% | 90% | 90% | –
COC(=O)COc1nn(-c2ccccc2F)c(-c2ccc(F)nc2)c1C(F)(F)F [VII-031] | 100% | – | 90% | – | – | 90% | 90% | – | 100% | 80% | 100% | 100% | 100% | 90% | 90% | – | 90% | – | –
COC(=O)COc1nn(-c2ccccc2F)c(-c2ccc(F)nc2)c1F [VII-040] | 100% | – | 90% | – | – | 80% | 90% | – | 100% | – | 100% | 100% | 100% | 90% | 90% | – | – | 90% | –
COC(=O)CCOC(=O)COc1nn(-c2ccccc2F)c(-c2ccc(F)nc2)c1Br [VII-111] | 100% | – | 100% | – | – | 90% | 80% | – | 100% | – | 100% | 100% | 100% | 90% | 90% | – | 90% | – | –
COC(=O)[C@@H](C)Oc1nn(-c2cc(F)ccc2F)c(-c2cncc(F)c2)c1Br [VII-132] | 100% | – | 90% | – | – | 80% | – | – | 100% | – | 100% | 100% | 100% | 80% | 80% | 100% | 90% | 100% | 90%

Source: US12180187B2, “1-phenyl-5-azinylpyrazolyl-3-oxyalkyl acids and their use for controlling unwanted plant growth” (BAYER AKTIENGESELLSCHAFT, priority 2019, dated 2024)
